# System: Chilo suppressalis
# Test: Insecticidal activity against Chilo suppressalis, sprayed Oryza sativa seedlings, stalks fed to larvae
# Assay type: in vivo
# Settings: parallel comparison test; for pest or weed control at 1 µg/mL / pest or weed control at 10 µg/mL: Chilo suppressalis, 72 h, 3 days after the treatment; for pest or weed control at 1 µg/mL: 1 mg/L, read-out: Lethality rate (%, 3 days after the treatment) 1 mg/L; for pest or weed control at 10 µg/mL: 10 mg/L, read-out: Lethality rate (%, 3 days after the treatment) 10 mg/L
# Method: The compounds of the invention were determined for the insecticidal activities against several insects. The determination method was as follows:
# After being dissolved in a mixed solvent of acetone/methanol (1:1), the test compound was diluted with water containing 0.1% (wt) Tween 80 to the desired concentration.
# With Leucania separata, Plutella xylostella, and Chilo suppressalis as targets, airbrush spray method was used for the determination of activity.
# Determination method: 1) Preparation of Oryza sativa seedlings: Oryza sativa was cultivated in a constant temperature room (a temperature of 26-28° C., a relative humidity of about 60-80%, and a light illumination of 16hL:8hD) in a small plastic cup with a diameter of 4.5 cm and a height of 4 cm, and when the Oryza sativa grew up to the 4-5 leaf stage, robust and consistent Oryza sativa seedlings were selected for chemical treatment, and 3 repetitions were performed for each treatment. 2) Preparation for test insects: Chilo suppressalis at 3rd instar larvae were raised continuously indoors. 3) The Oryza sativa stems were sprayed and insects were introduced. Spraying was performed uniformly on the whole plant of the Oryza sativa seedlings, with 15 ml of compound solution for each treatment. The blank control was treated first, and then the above operations were repeated in the order of the test concentration from low to high. After the Oryza sativa seedlings were sprayed, they were placed in a cool place to dry the liquid, and about 5 cm of stalks at the base of the stems were cut and fed to the test insects. A glass petri dish with a diameter of 90 mm was placed with filter paper at the bottom of the dish, and then was moisturized by adding water. After that, about 5 rice stalks and 10 larvae were placed in each dish, and the petri dish was sealed with a non-woven fabric and placed in a constant temperature room for cultivation. The number of remaining live insects was investigated 3 days after the treatment.
# The compounds 1, 3, 7, 11 of this disclosure and the comparative compounds were selected for a parallel comparison test of the insecticidal activity against Chilo suppressalis (3 days after the treatment), through a same determination method as that described above.
Compound,pest or weed control at 1 µg/mL,pest or weed control at 10 µg/mL,"Lethality rate (%, 3 days after the treatment) 0.25 mg/L","Lethality rate (%, 3 days after the treatment) 0.5 mg/L"
O=C(Nc1c(Br)cc(C(F)(C(F)(F)F)C(F)(F)F)cc1C(F)(F)F)c1cccc(N(CC2CC2)C(=O)c2ccc(F)nc2)c1F [Compound 3],100%,100%,100%,100%
O=C(Nc1c(Br)cc(C(F)(C(F)(F)F)C(F)(F)F)cc1Br)c1cccc(N(CC2CC2)C(=O)c2ccc(F)cc2)c1F [Compound 1-1],50%,100%,0%,13.33%
O=C(Nc1c(Br)cc(C(F)(C(F)(F)F)C(F)(F)F)cc1C(F)(F)F)c1cccc(N(CC2CC2)C(=O)c2ccc(Cl)nc2)c1F [Compound 5-2],33.3%,70%,–,0%
N#Cc1ccc(C(=O)N(CC2CC2)c2cccc(C(=O)Nc3c(Br)cc(C(F)(C(F)(F)F)C(F)(F)F)cc3C(F)(F)F)c2F)cn1 [Compound 11],100%,100%,100%,100%
N#Cc1ccc(C(=O)N(CC2CC2)c2cccc(C(=O)Nc3c(Br)cc(C(F)(C(F)(F)F)C(F)(F)F)cc3C(F)(F)F)c2F)cc1 [Compound 4-1],93.3%,100%,16.67%,53.33%
O=C(Nc1c(Br)cc(C(F)(C(F)(F)F)C(F)(F)F)cc1C(F)(F)F)c1cccc(N(CC2CC2)C(=O)c2ccc(F)cc2)c1F [Compound 2-1],96.7%,100%,23.33%,66.67%
O=C(Nc1c(Br)cc(C(F)(C(F)(F)F)C(F)(F)F)cc1C(F)(F)F)c1cccc(N(CC2CC2)C(=O)c2ccc(C(F)(F)F)cc2)c1F [Compound 3-1],56.7%,100%,0%,26.67%
O=C(Nc1c(Br)cc(C(F)(C(F)(F)F)C(F)(F)F)cc1Br)c1cccc(N(CC2CC2)C(=O)c2cccnc2)c1F [Compound 1-2],0%,0%,–,–
O=C(Nc1c(Br)cc(C(F)(C(F)(F)F)C(F)(F)F)cc1C(F)(F)F)c1cccc(N(CC2CC2)C(=O)c2cccnc2)c1F [Compound 5-1],0%,16.7%,–,–

# Reference: patent US12509422B2, “Bisamide compound and application thereof” (METISA BIOTECHNOLOGY CO., LTD, priority 2019, dated 2025)
